Consider 20 molecules from patent publication US11596632B2, “JAK1 pathway inhibitors for the treatment of gastrointestinal disease” (Incyte Corporation, priority 2018, dated 2023).

By IC50 is commonly meant the concentration that inhibits the measured activity by half. A lower IC50 goes with greater potency in that assay.

Assay [1] concerns the target JAK2 (a.a. 828-1132) (Homo sapiens (Human), UniProt O60674). Briefly: In vitro JAK kinase assay (HTRF), JAK2 relative to JAK1. In kind it is biochemical. Particulars: IC50 ratio, 1 mM ATP. As for the experimental part:
(§1) The catalytic activity of JAK1, JAK2 or JAK3 was assayed by measuring the phosphorylation of a biotinylated peptide. The phosphorylated peptide was detected by homogenous time resolved fluorescence (HTRF). […] Reactions are carried out at room temperature for 1 hour and then stopped with 20 μL 45 mM EDTA, 300 nM SA-APC, 6 nM Eu-Py20 in assay buffer (Perkin Elmer, Boston, Mass.). Binding to the Europium labeled antibody takes place for 40 minutes and HTRF signal was measured on a Fusion plate reader (Perkin Elmer, Boston, Mass.).

The target in assay [2] is human JAK1 (a.a. 837-1142) (Homo sapiens (Human), UniProt P23458). Briefly: In vitro JAK kinase assay (HTRF), JAK1. In kind it is biochemical. Particulars: 1 mM ATP. As for the experimental part:
as §1

Assay [3] concerns oxazolone-induced colitis in BALB/c mice. To be noted: published results (Beattie et al); cited from earlier work.

Each structure is given as a SMILES string. Bounds are passed on as bounds.

human JAK1 (a.a. 837-1142), sequence (P23458 837-1142): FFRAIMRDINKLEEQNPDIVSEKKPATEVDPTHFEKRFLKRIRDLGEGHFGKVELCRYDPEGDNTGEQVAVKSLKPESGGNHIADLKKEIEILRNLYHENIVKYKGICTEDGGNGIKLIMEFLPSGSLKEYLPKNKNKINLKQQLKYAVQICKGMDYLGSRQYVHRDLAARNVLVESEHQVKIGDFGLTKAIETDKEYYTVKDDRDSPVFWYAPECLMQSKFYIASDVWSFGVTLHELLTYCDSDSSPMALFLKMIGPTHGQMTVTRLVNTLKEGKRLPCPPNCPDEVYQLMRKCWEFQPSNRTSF
JAK2 (a.a. 828-1132), sequence (O60674 828-1132): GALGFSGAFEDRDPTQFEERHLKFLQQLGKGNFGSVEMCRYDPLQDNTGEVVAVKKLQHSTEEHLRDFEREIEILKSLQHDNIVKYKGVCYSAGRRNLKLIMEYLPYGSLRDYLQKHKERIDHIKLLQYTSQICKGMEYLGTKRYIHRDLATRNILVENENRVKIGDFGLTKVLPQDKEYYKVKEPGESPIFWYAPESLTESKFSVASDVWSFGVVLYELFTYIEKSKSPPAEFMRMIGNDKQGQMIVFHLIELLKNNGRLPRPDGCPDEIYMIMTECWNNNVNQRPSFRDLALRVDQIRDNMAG

`N#CCC(C1CCN(c2cccc(Cl)n2)C1)n1cc(-c2ncnc3[nH]ccc23)cn1` (single isomer, unassigned) [Compound 6, 3-[1-(6-chloropyridin-2-yl)pyrrolidin-3-yl]-3-[4-(7H-pyrrolo[2,3-d]pyrimidin-4-yl)-1H-pyrazol-1-yl]propanenitrile]: the JAK2/JAK1 in assay [1] was greater than 10. The IC50 in assay [2] is less than 10 nM.

As for `N#CCC1(n2cc(-c3ncnc4[nH]ccc34)cn2)CN(C2CCN(C(=O)Nc3ccc(F)cc3C(F)(F)F)CC2)C1` [Compound 2, 4-{3-(Cyanomethyl)-3-[4-(7H-pyrrolo[2,3-d]pyrimidin-4-yl)-1H-pyrazol-1-yl]azetidin-1-yl}-N-[4-fluoro-2-(trifluoromethyl)phenyl]piperidine-1-carboxamide], the JAK2/JAK1 in assay [1] is on record as greater than 10. In assay [2], this molecule yielded a 50% inhibitory concentration (IC50) of less than 10 nM.

`N#CCC1(n2cc(-c3ncnc4[nH]ccc34)cn2)CN(C2CCN(C(=O)c3ccnc(C(F)(F)F)n3)CC2)C1` [Compound 3, [3-[4-(7H-pyrrolo[2,3-d]pyrimidin-4-yl)-1H-pyrazol-1-yl]-1-(1-{[2-(trifluoromethyl)pyrimidin-4-yl]carbonyl}piperidin-4-yl)azetidin-3-yl]acetonitrile]: in assay [1], the JAK2/JAK1 is recorded as greater than 10. In assay [2], this molecule returned an IC50 of less than 10 nM.

`C[C@@H](O)c1nc2cnc3ccsc3c2n1[C@H]1CC[C@H](CC#N)OC1` [Compound 5, ((2R,5S)-5-{2-[(1R)-1-hydroxyethyl]-1H-imidazo[4,5-d]thieno[3,2-b]pyridin-1-yl}tetrahydro-2H-pyran-2-yl)acetonitrile]: the JAK2/JAK1 in assay [1] is on record as greater than 10. For the same molecule, in assay [2], the IC50 was less than 100 nM.

With `N#CCC(C1CCN(c2nc3cccnc3o2)C1)n1cc(-c2ncnc3[nH]ccc23)cn1` (stereo not drawn) [Compound 7, 3-(1-[1,3]oxazolo[5,4-b]pyridin-2-ylpyrrolidin-3-yl)-3-[4-(7H-pyrrolo[2,3-d]pyrimidin-4-yl)-1H-pyrazol-1-yl]propanenitrile], in assay [1], the JAK2/JAK1 was greater than 10. Moreover, the IC50 in assay [2] is less than 10 nM.

`N#CCC(CN1CCN(C(=O)c2ccc(C#N)cc2F)CC1)n1ccc(-c2ncnc3[nH]ccc23)c1` (stereo not drawn) [Compound 9, 4-[(4-{3-cyano-2-[3-(7H-pyrrolo[2,3-d]pyrimidin-4-yl)-1H-pyrrol-1-yl]propyl}piperazin-1-yl)carbonyl]-3-fluorobenzonitrile]: the JAK2/JAK1 in assay [1] is on record as greater than 10. Moreover, the IC50 in assay [2] was less than 10 nM.

Consider `N#CC[C@]1(n2cc(-c3ncnc4[nH]ccc34)cn2)C[C@H](N2CCN(C(=O)c3ccnc(C(F)(F)F)n3)CC2)C1` [Compound 10, [trans-1-[4-(7H-pyrrolo[2,3-d]pyrimidin-4-yl)-1H-pyrazol-1-yl]-3-(4-{[2-(trifluoromethyl)pyrimidin-4-yl]carbonyl}piperazin-1-yl)cyclobutyl]acetonitrile], for which the JAK2/JAK1 in assay [1] is greater than 10. The same molecule showed an IC50 in assay [2] of less than 10 nM.

`N#CC[C@]1(n2cc(-c3ncnc4[nH]ccc34)cn2)C[C@H](N2CCC(Oc3cc(CN4CC(O)C4)cc(C(F)(F)F)n3)CC2)C1` [Compound 11, {trans-3-(4-{[4-[(3-hydroxyazetidin-1-yl)methyl]-6-(trifluoromethyl)pyridin-2-yl]oxy}piperidin-1-yl)-1-[4-(7H-pyrrolo[2,3-d]pyrimidin-4-yl)-1H-pyrazol-1-yl]cyclobutyl}acetonitrile]: the JAK2/JAK1 in assay [1] is greater than 10. Moreover, in assay [2], the IC50 is less than 10 nM.

On to `N#CC[C@]1(n2cc(-c3ncnc4[nH]ccc34)cn2)C[C@H](N2CCC(Oc3cc(CN4CCC[C@H]4CO)cc(C(F)(F)F)n3)CC2)C1` [Compound 12, {trans-3-(4-{[4-{[(2S)-2-(hydroxymethyl)pyrrolidin-1-yl]methyl}-6-(trifluoromethyl)pyridin-2-yl]oxy}piperidin-1-yl)-1-[4-(7H-pyrrolo[2,3-d]pyrimidin-4-l)-1H-pyrazol-1-yl]cyclobutyl}acetonitrile], for which the JAK2/JAK1 in assay [1] is greater than 10. Moreover, in assay [2], the IC50 was less than 10 nM.

Turning to `N#CC[C@]1(n2cc(-c3ncnc4[nH]ccc34)cn2)C[C@H](N2CCC(Oc3cc(CN4CCC[C@@H]4CO)cc(C(F)(F)F)n3)CC2)C1` [Compound 13, {trans-3-(4-{[4-{[(2R)-2-(hydroxymethyl)pyrrolidin-1-yl]methyl}-6-(trifluoromethyl)pyridin-2-yl]oxy}piperidin-1-yl)-1-[4-(7H-pyrrolo[2,3-d]pyrimidin-4-yl)-1H-pyrazol-1-yl]cyclobutyl}acetonitrile], the JAK2/JAK1 in assay [1] was greater than 10. Besides, in assay [2], the IC50 is less than 10 nM.

Regarding `N#CCC1(n2cc(-c3ncnc4[nH]ccc34)cn2)CN([C@H]2CC[C@@H](Oc3cc(CCO)nc(C(F)(F)F)n3)CC2)C1` [Compound 18, {1-(cis-4-{[6-(2-hydroxyethyl)-2-(trifluoromethyl)pyrimidin-4-yl]oxy}cyclohexyl)-3-[4-(7H-pyrrolo[2,3-d]pyrimidin-4-yl)-1H-pyrazol-1-yl]azetidin-3-yl}acetonitrile], in assay [1], the JAK2/JAK1 is on record as greater than 10. For the same molecule, the IC50 in assay [2] was less than 10 nM.

As for `CCNCc1cc(O[C@H]2CC[C@@H](N3CC(CC#N)(n4cc(-c5ncnc6[nH]ccc56)cn4)C3)CC2)nc(C(F)(F)F)c1` [Compound 19, {1-(cis-4-{[4-[(ethylamino)methyl]-6-(trifluoromethyl)pyridin-2-yl]oxy}cyclohexyl)-3-[4-(7H-pyrrolo[2,3-d]pyrimidin-4-yl)-1H-pyrazol-1-yl]azetidin-3-yl}acetonitrile], the JAK2/JAK1 in assay [1] is on record as greater than 10. This molecule gave an IC50 in assay [2] of less than 10 nM.

Turning to `CC(C)(O)c1cc(O[C@H]2CC[C@@H](N3CC(CC#N)(n4cc(-c5ncnc6[nH]ccc56)cn4)C3)CC2)nc(C(F)(F)F)c1` [Compound 20, {1-(cis-4-{[4-(1-hydroxy-1-methylethyl)-6-(trifluoromethyl)pyridin-2-yl]oxy}cyclohexyl)-3-[4-(7H-pyrrolo[2,3-d]pyrimidin-4-yl)-1H-pyrazol-1-yl]azetidin-3-yl}acetonitrile], the JAK2/JAK1 in assay [1] was greater than 10. This molecule came in with an IC50 in assay [2] of less than 10 nM.

With `N#CCC1(n2cc(-c3ncnc4[nH]ccc34)cn2)CN([C@H]2CC[C@@H](Oc3cc(CN4CC[C@@H](O)C4)cc(C(F)(F)F)n3)CC2)C1` [Compound 21, {1-(cis-4-{[4-{[(3R)-3-hydroxypyrrolidin-1-yl]methyl}-6-(trifluoromethyl)pyridin-2-yl]oxy}cyclohexyl)-3-[4-(7H-pyrrolo[2,3-d]pyrimidin-4-yl)-1H-pyrazol-1-yl]azetidin-3-yl}acetonitrile], in assay [1], the JAK2/JAK1 is on record as greater than 10. In addition, the IC50 in assay [2] was less than 10 nM.

Regarding `N#CCC1(n2cc(-c3ncnc4[nH]ccc34)cn2)CN([C@H]2CC[C@@H](Oc3cc(CN4CC[C@H](O)C4)cc(C(F)(F)F)n3)CC2)C1` [Compound 22, {1-(cis-4-{[4-{[(3S)-3-hydroxypyrrolidin-1-yl]methyl}-6-(trifluoromethyl)pyridin-2-yl]oxy}cyclohexyl)-3-[4-(7H-pyrrolo[2,3-d]pyrimidin-4-yl)-1H-pyrazol-1-yl]azetidin-3-yl}acetonitrile], in assay [1], the JAK2/JAK1 was greater than 10. The molecule further yielded a half-maximal inhibitory concentration (IC50) in assay [2] of less than 10 nM.

As to `C[C@@H](CO)NCc1cc(OC2CCN([C@H]3C[C@](CC#N)(n4cc(-c5ncnc6[nH]ccc56)cn4)C3)CC2)nc(C(F)(F)F)c1` [Compound 23], the JAK2/JAK1 in assay [1] is listed as greater than 10. In assay [2], this molecule returned an IC50 of less than 10 nM.

`C[C@@H](O)CNCc1cc(OC2CCN([C@H]3C[C@](CC#N)(n4cc(-c5ncnc6[nH]ccc56)cn4)C3)CC2)nc(C(F)(F)F)c1` [Compound 24, {trans-3-(4-{[4-({[(2R)-2-hydroxypropyl]amino}methyl)-6-(trifluoromethyl)pyridin-2-yl]oxy}piperidin-1-yl)-1-[4-(7H-pyrrolo[2,3-d]pyrimidin-4-yl)-1H-pyrazol-1-yl]cyclobutyl}acetonitrile]: the JAK2/JAK1 in assay [1] is greater than 10. Further, the IC50 in assay [2] is less than 10 nM.

As for `C[C@H](O)CNCc1cc(OC2CCN([C@H]3C[C@](CC#N)(n4cc(-c5ncnc6[nH]ccc56)cn4)C3)CC2)nc(C(F)(F)F)c1` [Compound 25, {trans-3-(4-{[4-({[(2S)-2-hydroxypropyl]amino}methyl)-6-(trifluoromethyl)pyridin-2-yl]oxy}piperidin-1-yl)-1-[4-(7H-pyrrolo[2,3-d]pyrimidin-4-yl)-1H-pyrazol-1-yl]cyclobutyl}acetonitrile], in assay [1], the JAK2/JAK1 is on record as greater than 10. In addition, the IC50 in assay [2] was less than 10 nM.

On to `N#CC[C@]1(n2cc(-c3ncnc4[nH]ccc34)cn2)C[C@H](N2CCC(Oc3cc(CCO)cc(C(F)(F)F)n3)CC2)C1` [Compound 26, {trans-3-(4-{[4-(2-hydroxyethyl)-6-(trifluoromethyl)pyridin-2-yl]oxy}piperidin-1-yl)-1-[4-(7H-pyrrolo[2,3-d]pyrimidin-4-yl)-1H-pyrazol-1-yl]cyclobutyl}acetonitrile], for which the JAK2/JAK1 in assay [1] is recorded as greater than 10. The molecule also came in with an IC50 in assay [2] of less than 10 nM.

For `C[C@@H]1CCN(C(=O)CC#N)C[C@@H]1N(C)c1ncnc2[nH]ccc12` [tofacitinib], the “effect on oxazolone-induced colitis” value in assay [3] was “inhibits oxazolone-induced colitis”.
